We go through 36 compounds from patent publication US11286268B1, “EIF4E-inhibiting compounds and methods” (EFFECTOR THERAPEUTICS, INC., priority 2019, dated 2022).

Read-outs that look alike come from different tables or passages of the source.

The test has as its target recombinant eIF4E (Homo sapiens (Human), UniProt P06730). Put plainly: Fluorescence polarization competition assay for eIF4E binding potency. The protocol:
Compounds were screened for eIF4E binding potency using a fluorescence polarization competition assay. All binding reactions were performed in fluorescence polarization buffer (FPB) containing 20 mM Tris pH 7.5, 100 mM NaCl, 1 mM DTT, and 0.02% Tween-20. Final binding reactions contained 75 nM recombinant eIF4E (Beryllium, custom order), 20 nM EDA-m^7GDP-ATTO-550 (Jena Bioscience, NU-827-550) and varying concentrations of the inhibitory compound of interest. Final DMSO concentration in each reaction was 1%.
eIF4E protein was pre-incubated with EDA-m^7GDP-ATTO-550 in FPB at 2× concentrations for 5 minutes prior to the addition of compounds. Compounds (100×) were prepared using 3-fold serial dilutions in 100% DMSO, and subsequently diluted 1:50 in FPB to produce 2× stocks. 50 μl of 2× eIF4E/EDA-m^7GDP-ATTO-550 were transferred to the wells of a 96-well half-area black flat bottom polystyrene plate. 50 μl of 2× test compound were added, and binding reactions were allowed to equilibrate for 30 minutes at room temperature while protected from light. The fluorescent polarization signal was detected using a Victor 2 multi-label counter (Perkin Elmer) and the concentration necessary to achieve inhibition of eIF4E/EDA-m^7GDP-ATTO-550 binding by 50% (IC50) was calculated using data from an 8-point compound dilution series.
In Table 4A, IC50 values of less than 0.05 μM are labelled as “+++”, from 1 to 0.05 μM are labelled as “++”, and greater than 1 μM are labelled as “+”. ND=not determined.
In general terms: In fluorescence polarisation assays a small probe gives low polarisation when free and higher when bound to something large.

Where [1] appears, read: inhibition of eIF4E/EDA-m7GDP-ATTO-550 binding, calculated IC50 values, Table 4B, read-out: IC50.
[2] abbreviates: fluorescence polarization competition, 75 nM recombinant eIF4E, 20 nM EDA-m7GDP-ATTO-550, IC50 class, read-out: elF4E FP.
Where [3] appears, read: inhibition of eIF4E/EDA-m7GDP-ATTO-550 binding by 50%, Table 4B calculated values, read-out: IC50.

recombinant eIF4E, sequence (P06730 whole entry): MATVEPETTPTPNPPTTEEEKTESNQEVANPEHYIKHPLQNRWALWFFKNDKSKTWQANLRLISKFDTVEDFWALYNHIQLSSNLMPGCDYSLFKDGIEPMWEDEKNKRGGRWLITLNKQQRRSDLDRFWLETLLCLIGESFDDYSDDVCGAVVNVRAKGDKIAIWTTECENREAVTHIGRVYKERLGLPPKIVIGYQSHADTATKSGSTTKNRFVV

`Cc1nc2cnc(N3CCN(C(C)C(F)F)CC3)c(C#N)c2c(=O)n1CC#Cc1ccc(Cl)cc1-c1ccnc2c(C(=O)O)csc12` (stereo not shown) [compound 1466]: under setting [1], the IC50 is 17.9 nM.
Regarding `Cc1nc2cnc(N3CCN(CC(C)(C)F)CC3)c(C#N)c2c(=O)n1CCOc1ccc(Cl)cc1-c1ccnc2c(C(=O)NS(C)(=O)=O)csc12` [compound 1516], the IC50 under setting [1] was 17 nM.
For the compound `Cc1nc2cncc(C#N)c2c(=O)n1CC#Cc1ccc(Cl)cc1-c1ccc(C(=O)O)c(C(=O)O)c1` [compound 149], the IC50 is 50 to 1000 nM under setting [2] and 110 nM under setting [3].
Take `COc1c(C)n(CCOc2ccc(Cl)cc2-c2ccnc3c(C(=O)O)csc23)c(=O)c2c(C#N)cc(C(F)(F)F)cc12` [compound 309]: the IC50 was 50 to 1000 nM under setting [2] and 52.5 nM under setting [3].
For the compound `CC(=O)CN1CCC(N(C)c2ncc3nc(C)n(CC#Cc4ccc(Cl)cc4-c4ccnc5c(C(=O)O)csc45)c(=O)c3c2C#N)CC1` [compound 1519], the IC50 under setting [1] is 15.3 nM.
For `N#Cc1c(C(F)F)ccc2ncn(CCOc3ccc(Cl)cc3-c3ccnc(C(=O)O)c3)c(=O)c12` [compound 161], the IC50 under setting [2] lay in the range of 50 to 1000 nM.
Take `Cc1nc2cnc(N(C)[C@@H]3CC[C@H](N(C)CC(F)F)C3)c(C#N)c2c(=O)n1CC#Cc1ccc(Cl)cc1-c1ccnc2c(C(=O)O)csc12` [compound 1897]: under setting [1], the IC50 was 13.1 nM.
As to `Cc1nc2cc(F)c(F)c(C#N)c2c(=O)n1CCOc1ccc(Cl)cc1-c1ccnc2c(C(=O)NS(C)(=O)=O)csc12` [compound 307], the IC50 under setting [2] lay in the range of 50 to 1000 nM and the IC50 under setting [3] was 59.4 nM.
Consider `Cc1nc2cnc(S(=O)(=O)N3CCN(C)CC3)c(C#N)c2c(=O)n1CCOc1ccc(Cl)cc1-c1ccnc2c(C(=O)O)csc12` [compound 821], for which the IC50 runs as follows: under setting [2], under 50 nM; under setting [3], 14.2 nM.
As to `Cc1cc(-c2cc(Cl)ccc2OCCn2c(C)nc3cc(C(F)(F)F)c(CC4CCN(C)CC4=O)c(C#N)c3c2=O)c2scc(C(=O)O)c2n1` (stereo not shown) [compound 1908], the IC50 under setting [1] was 5.17 nM.
As to `Cc1cc(-c2cc(Cl)ccc2OCCn2c(C)nc3cc(C(F)(F)F)c(-c4cnc(C)c(C)c4)c(C#N)c3c2=O)c2scc(C(=O)O)c2n1` [compound 389], the IC50 is under 50 nM under setting [2] and 12.3 nM under setting [3].
Take `Cc1cc(-c2cc(Cl)ccc2OCCn2c(C)nc3cc(C(F)(F)F)c(N4CC(F)(F)C4)c(C#N)c3c2=O)c2scc(C(=O)O)c2n1` [compound 687]: the IC50 was under 50 nM under setting [2] and 13.5 nM under setting [3].
Take `Cc1cc(-c2cc(Cl)ccc2OCCn2c(C)nc3cc(C(F)(F)F)c(-c4cc(C)nn4C)c(C#N)c3c2=O)c2scc(C(=O)O)c2n1` [compound 1028]: the IC50 under setting [2] is under 50 nM and the IC50 under setting [3] was 6.14 nM.
In the case of `Cc1cc(-c2cc(Cl)ccc2OCCn2c(C)nc3cnc(C4CCC(F)(F)C4)c(C#N)c3c2=O)c2scc(C(=O)O)c2n1` (stereo not shown) [compound 930], the IC50 is under 50 nM under setting [2] and 6.88 nM under setting [3].
`N#Cc1cccc2nc(C(F)F)n(CCOc3ccc(Cl)cc3-c3cncn(CC(=O)O)c3=S)c(=O)c12` [compound 192]: the IC50 under setting [2] was over 1000 nM and the IC50 under setting [3] was 1310 nM.
The like results for `Cc1nc2ccc(F)c(C#N)c2c(=O)n1CCOc1ccc(Cl)cc1-c1ccnc2c(C(=O)O)csc12` [compound 245] were, in that order, under 50 nM and 25.6 nM.
For the compound `Cc1nc2cc(C(F)(F)F)c(N3CCN(C)CC3)c(C#N)c2c(=O)n1CCOc1ccc(Cl)cc1-c1ccnc2c(C(=O)O)csc12` [compound 834], the IC50 reads like this: under setting [2], under 50 nM; under setting [3], 31.6 nM.
For `Cc1cc(-c2cc(Cl)ccc2OCCn2c(C)nc3cnc(NCC(F)F)c(C#N)c3c2=O)c2scc(C(=O)O)c2n1` [compound 974], the IC50 under setting [2] is under 50 nM and the IC50 under setting [3] was 23.6 nM.
For the compound `Cc1nc2cc(C(F)(F)F)c(N3CCN(C)CC3)nc2c(=O)n1CCOc1ccc(Cl)cc1-c1ccnc2c(C(=O)NS(C)(=O)=O)csc12` [compound 1300], under setting [1], the IC50 was 18.1 nM.
Same read-out and setting: to `Cc1nc2cnc(N(C)C3CCN(C(C)C(F)F)CC3)c(C#N)c2c(=O)n1CCOc1ccc(Cl)cc1-c1ccnc2c(C(=O)O)csc12` (stereo not shown) [compound 1662] belongs 22.1 nM.
As for `Cc1nc2ccc(CCN(C)C)c(C#N)c2c(=O)n1CCOc1ccc(Cl)cc1-c1ccc(C(F)(F)F)c2c(C(=O)O)csc12` [compound 578], the IC50 by setting is: under setting [2], under 50 nM; under setting [3], 32 nM.
Regarding `Cc1nc2cnc(N(C)C3CCN(CCOC(F)(F)F)CC3)c(C#N)c2c(=O)n1CC#Cc1ccc(Cl)cc1-c1ccnc2c(C(=O)O)csc12` [compound 1170], the IC50 was under 50 nM under setting [2] and 17.1 nM under setting [3].
In the same order, the values of `Cc1cc(-c2cc(Cl)ccc2OCCn2c(C)nc3cc(C(F)(F)F)c(N4CCC(F)(F)CC4)nc3c2=O)c2scc(C(=O)O)c2n1` [compound 802] are under 50 nM and 35.9 nM.
As for `N#Cc1cc(C(F)(F)F)cc2ncn(CCOc3ccc(Cl)cc3-c3ccnc4c(C(=O)O)csc34)c(=O)c12` [compound 1899], the IC50 under setting [1] is 16.4 nM.
In the case of `O=C(O)c1cccc(-c2cc(Cl)ccc2OCCn2ccc3ccncc3c2=O)c1` [compound 6], the IC50 under setting [2] was over 1000 nM and the IC50 under setting [3] was 7390 nM.
Take `CSc1ncc(-c2cc(Cl)ccc2OCCn2cnc3cnc(C#N)cc3c2=O)nc1C(=O)O` [compound 98]: the IC50 is 50 to 1000 nM under setting [2] and 564 nM under setting [3].
`Cc1cc(-c2cc(Cl)ccc2OCCn2c(C)nc3c(C)nc(-c4ccccc4Cl)c(C#N)c3c2=O)c2scc(C(=O)O)c2n1` [compound 482]: under setting [2], the IC50 is under 50 nM.
Turning to `Cc1cc(-c2cc(Cl)ccc2OCCn2c(C)nc3cc(C(F)(F)F)c(Cl)c(C#N)c3c2=O)c2scc(C(=O)O)c2n1` [compound 558], the IC50 by setting is: under setting [2], under 50 nM; under setting [3], 27.2 nM.
As for `CCc1cc(-c2cc(Cl)ccc2OCCn2c(C)nc3cc(C(F)(F)F)c(N4CCN(C)CC4)c(C#N)c3c2=O)c2scc(C(=O)O)c2n1` [compound 1085], the IC50 was 50 to 1000 nM under setting [2] and 54.3 nM under setting [3].
As for `Cc1nc2cc(Cl)c(C(F)F)c(C#N)c2c(=O)n1CCOc1ccc(Cl)cc1-c1ccnc2c(C(=O)O)csc12` [compound 119], the IC50 by setting is: under setting [2], under 50 nM; under setting [3], 19.9 nM.
For the compound `Cc1cc(-c2cc(Cl)ccc2OCCn2c(C)nc3cc(Cl)cc(C#N)c3c2=O)c2scc(C(=O)O)c2n1` [compound 693], the IC50 by setting is: under setting [2], under 50 nM; under setting [3], 15 nM.
In the case of `Cc1cc(-c2cc(Cl)ccc2OCCn2c(C)nc3cnc(C4(F)CN(C)C4)c(C#N)c3c2=O)c2scc(C(=O)O)c2n1` [compound 1421], the IC50 under setting [1] is 36.6 nM.
As for `Cc1nc2cc(C(N)=O)cc(C#N)c2c(=O)n1CCOc1ccc(Cl)cc1-c1ccnc2c(C(=O)O)csc12` [compound 317], the IC50 under setting [2] was under 50 nM and the IC50 under setting [3] is 17.1 nM.
For the compound `Cc1cc(-c2cc(Cl)ccc2OCCn2c(C)nc3c(C)nc(-c4cc(Cl)ccc4F)c(C#N)c3c2=O)c2scc(C(=O)O)c2n1` [compound 997], the IC50 under setting [2] was under 50 nM and the IC50 under setting [3] is 12.2 nM.
For `Cc1cc2c(=O)n(CCOc3ccc(Cl)cc3-c3cccc(C(=O)O)c3)cnc2cn1` [compound 138], the IC50 is, setting by setting: under setting [2], 50 to 1000 nM; under setting [3], 279 nM.
In the case of `Cc1cc(-c2cc(Cl)ccc2OCCn2c(C)nc3cc(C(F)(F)F)c(-c4cnc(C)nc4C)c(C#N)c3c2=O)c2scc(C(=O)O)c2n1` [compound 437], the IC50 runs as follows: under setting [2], under 50 nM; under setting [3], 6.21 nM.
